A short description of data set [1]: UV-Vis absorption spectroscopy. The conditions noted are these: in methanol. Type of data set: physicochemical. On the procedure: (§1) The ^1H NMR and ^13C NMR spectra were recorded at 25 °C in a Nuclear Magnetic Resonance Spectrophotometer (DRX-400, Bruker, Bremerhaven, Germany) at 400 MHz for ^1H NMR in DMSO-d6 and 100 MHz for ^13C NMR in CDCl3. Thin layer chromatography (TLC) was carried out on silica gel (GF254, Qingdao Haiyang Chemical Co., Ltd., Qingdao, China), and the spots were visualized with UV light at 254 nm. Fluorescence spectra were recorded on a fluorescence spectrophotometer (F-2710, Hitachi, Tokyo, Japan). UV-Vis spectrophotometer (UH5300, Hitachi, Tokyo, Japan) was used for the absorption measurements and the spectra were typically measured in the range of 190–1100 nm.
The sample of the compounds (A1–A3) was diluted to 1 × 10^−5 mg/mL. After thorough mixing, the target molecules were detected using a UV spectrophotometer at UV absorption wavelengths. The volume of the sample needed to be greater than 2/3 of the cuvette volume. All experiments were performed in triplicate.

In a further data set the test system is RAW264.7 cell. Description: MTT cell proliferation (cytotoxicity) assay. The data set is classed as cell-based. The conditions noted are these: for pIC50: MTT, 36 h treatment. On the procedure: The “click” reaction conditions in click chemistry require copper sulfate and sodium ascorbate as catalysts, and the copper sulfate concentration is generally too high, which causes certain damage to the body. RAW264.7 cells were used as test cells to explore the safe concentration of copper sulfate, compounds A1–A3, and probes T1–T4. The macrophage suspension of RAW264.7 cells in the logarithmic growth stage was adjusted to 5 × 10^4 cells/mL and seeded in 96-well plates with 100 µL in each well. The cells were incubated at 37 °C and 5% CO2 for 24 h and then treated with different concentrations of copper sulfate solution (each concentration was repeated three times). After being treated with copper sulfate for 36 h, 10 µL MTT (5 mg/mL) was added to each well, and the cells were incubated at 37 °C and 5% CO2 for 4 h. Then, the MTT in the well was discarded, and 100 µL DMSO was added to each well and incubated at 37 °C for 0.5 h until the crystals were completely dissolved. The microplate reader read the OD490 nm of each well. The cytotoxicity assays of compounds A1–A3 and probes T1–T4 were the same as above. The cell proliferation inhibition rate (IC50) was calculated using SPSS 16.0 software.

Data set [2] deals with Agrobacterium tumefaciens. The experiment in a line: Antibacterial activity, LB plate microdilution test. Type of data set: cell-based. The conditions noted are these: for antibacterial activity: cultured for 8 h. On the procedure: The compounds A1–A3 were evaluated through the plate microdilution test according to the guidelines of the Clinical and Laboratory Standards Institute (CLSI). A colony of Agrobacterium tumefaciens grown on lysogeny broth (LB) agar plates was inoculated in lysogeny broth (LB) and incubated in an aerobic environment at 28 °C overnight (ON). The bacterial suspension was diluted to 5 × 10^7 CFU/mL, and 200 µL was added to each well, obtaining a final density of […]. Meanwhile, A1–A3 were serially diluted in 1X PBS at concentrations of 30, 50, and 100 µmol/L. Cefuroxime was used as an antibiotic control and DMSO as a solvent control. Subsequently, the plates were incubated at 28 °C in aerobiosis, and the growth rate was evaluated after 4, 6, 8, and 10 h using an ultraviolet (UV) detector.
(In general: Dilution methods test growth across graded concentrations, often in twofold steps.)

Data set [3] in a line: Fluorescence excitation and emission spectra. Type of data set: physicochemical. On the procedure:
as §1
The sample of probes (T1–T4) was diluted to 1 × 10^−5 mg/mL for fluorescence, excitation, and emission spectra measurement by a fluorescence spectrophotometer. All experiments were performed in triplicate.

For data set [4], the system named is Agrobacterium tumefaciens. The experiment in a line: Fluorescence detection of Agrobacterium tumefaciens by diagnostic molecules (click in situ, fluorescence microscope). Type of data set: cell-based. The conditions noted are these: inhibitor 8 h (A1 30, A2 50, A3 50 µmol/L), then same amount of probe, copper sulfate and sodium ascorbate, click 1 h; probe-only controls. On the procedure: An amount of 3 mL of the standby Agrobacterium solution at a concentration of 5 × 10^3 CFU/mL was added to the shaker tube. Then, 200 µL of A1 at a concentration of 30 µmol/L, A2 at a concentration of 50 µmol/L, and A3 at a concentration of 50 µmol/L were added at 28 °C. After incubation at 200 RPM/min for 8 h, the upper layer of the medium was poured off after centrifugation and washed three times with PBS, and the bacterial solution was resuspended by adding 1 mL of medium. Then, the same amount of probe was added, and 15 µL copper sulfate and sodium ascorbate were added at a concentration of 10 µmol/L. The control group was treated with only the corresponding probe, and the concentration of each probe was the same as that of the corresponding inhibitor. After adding probes to each group, the “click” reaction was complete for 1 h. After centrifugation, the upper layer of the medium was poured off and washed three times with PBS. Then, 1 mL of the medium was added to resuspend the bacterial solution, and 10 µL was added to the slide for fluorescence microscope detection and observation of the fluorescence of Agrobacterium in each group.

The source of these data is PMC10057994, “Click Triazole as a Linker for Pretargeting Strategies: Synthesis, Docking Investigations, Fluorescence Diagnosis, and Antibacterial Action Studies” (Molecules, 2023).

pIC50: −log10 of the molar value. Where only a bound is given, the exact number is not on record here.

Broadly, the pIC50 is the IC50 on a negative log10 scale, so that one unit is a factor of ten. For `[N-]=[N+]=NCCOc1ccc(O)c(C(=O)N/N=C/c2ccc(-c3ccccc3[N+](=O)[O-])o2)c1` [A3, (E)-5-(2-azidoethoxy)-2-hydroxy-N’-((5-(2-nitrophenyl)furan-2-yl)methylene)benzohydrazide], the “absorption maxima (λmax)” value in data set [1] turned out to be 346 nm. This compound gave a pIC50 in the data set with RAW264.7 cell (Mus musculus) of under 4.00. In data set [2] (50 µmol/L), this compound gave an antibacterial activity of 35%.
With `C#CCOc1ccc(/C=N/c2ccccc2O)c(O)c1` [T2, (E)-2-((2-hydroxyphenylimino)methyl)-5-(prop-2-ynyloxy)phenol], in data set [3], the best emission wavelength is given as 315 nm and the best excitation wavelength was determined as 273 nm. The same compound gave a pIC50 in the data set on RAW264.7 cell (Mus musculus) of under 4.04.
On to `C#CCNc1cccc(C(=O)N/N=C/c2ccc(-c3ccccc3[N+](=O)[O-])o2)c1` [A2, (E)-N’-((5-(2-nitrophenyl)furan-2-yl)methylene)-3-(prop-2-ynylamino)benzohydrazide], for which the “absorption maxima (λmax)” value in data set [1] was 332 nm. In the data set with RAW264.7 cell (Mus musculus), the pIC50 is under 4.02. The compound further gave an antibacterial activity in data set [2] (50 µmol/L) of 45%. The “antibacterial activity (in words)” value in data set [2] (Agrobacterium tumefaciens, 30-100 µmol/L, 4-10 h) is “better antibacterial activity than A1 and A3”.
As to “(E)-5-(3-azidopropoxy)-2-((2-hydroxyphenylimino)methyl)phenol [T4]”, the “fluorescence of Agrobacterium tumefaciens” value in data set [4] was “did not emit fluorescence”. In data set [3], this compound displayed a best emission wavelength of 313 nm and a best excitation wavelength of 272 nm. Besides, the pIC50 in the data set with RAW264.7 cell was under 4.06.
In turn, `O=S(=O)([O-])[O-].[Cu+2]` [copper sulfate] yielded a cell survival rate with RAW264.7 cell (copper sulfate concentration 12 µmol/L) of 80%.
In general, melting point refers to the temperature, or range, at which the solid turns liquid. As to `C#CCOc1ccc(-c2nc3ccccc3s2)c(O)c1` [T3, 2-(benzo[d]thiazol-2-yl)-5-(prop-2-ynyloxy)phenol], the melting point is 179 to 180 °C. Besides, the “fluorescence of Agrobacterium tumefaciens” value in data set [4] is recorded as “did not emit fluorescence”. In data set [3], this compound showed a best emission wavelength of 377 nm and a best excitation wavelength of 327 nm. In the data set on RAW264.7 cell (Mus musculus), this compound gave a negative-log IC50 (pIC50) of under 4.00.
In data set [3], `[N-]=[N+]=NCCOc1ccc(/C=N/c2ccccc2OCc2ccccc2[N+](=O)[O-])c(O)c1` [T1, (E)-2-((2-(2-nitrobenzyloxy)phenylimino)methyl)-5-(2-azidoethoxy)phenol] displayed a best emission wavelength of 310 nm and a best excitation wavelength of 273 nm. Also, the pIC50 in the data set on RAW264.7 cell (Mus musculus) was under 4.00.
As to `C#CCOc1ccc(O)c(C(=O)N/N=C/c2ccc(-c3ccccc3[N+](=O)[O-])o2)c1` [A1, (E)-2-hydroxy-N’-((5-(2-nitrophenyl)furan-2-yl)methylene)-5-(prop-2-ynyloxy)benzohydrazide], in data set [1], the “absorption maxima (λmax)” value was found to be 352 nm. In the data set with RAW264.7 cell (Mus musculus), this compound showed a negative-log IC50 (pIC50) of under 4.01. Also, the antibacterial activity in data set [2] (30 µmol/L) is given as 35%.
